# Patent publication US8822503B2, “2-pyridone compounds” (Taisho Pharmaceutical Co., Ltd, priority 2009, dated 2014)
# Target: T1, human liver GK (Homo sapiens, UniProt P35557)
# T1 construct: GST (glutathione S-transferase) (N); made in house; host or cells: E. coli
# T1 sequence (P35557 1-466 isoform P35557-2): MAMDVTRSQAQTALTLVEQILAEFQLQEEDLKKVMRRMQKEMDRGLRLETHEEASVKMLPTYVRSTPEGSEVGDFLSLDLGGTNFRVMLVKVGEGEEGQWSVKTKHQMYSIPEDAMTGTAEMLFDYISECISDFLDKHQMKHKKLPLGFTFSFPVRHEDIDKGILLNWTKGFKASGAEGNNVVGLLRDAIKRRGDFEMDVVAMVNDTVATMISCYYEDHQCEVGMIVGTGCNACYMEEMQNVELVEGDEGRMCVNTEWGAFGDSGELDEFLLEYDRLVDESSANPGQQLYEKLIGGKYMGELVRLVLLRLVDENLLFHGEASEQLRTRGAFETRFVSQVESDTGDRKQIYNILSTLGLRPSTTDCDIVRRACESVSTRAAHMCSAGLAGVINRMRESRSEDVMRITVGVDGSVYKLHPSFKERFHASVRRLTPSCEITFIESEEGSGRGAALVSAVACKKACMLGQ
# Assay: GK activation test
# Assay type: biochemical
# Conditions: test compound concentration needed to activate 50% of maximum activation ability; 4 mM 14C-labeled glucose, 2 mM ATP, room temperature, 20 minutes
# How it was run: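 GST-tagged human liver GK from E. coli (0.24 μg/well) with 4 mM 14C-glucose, 2 mM ATP in Hepes-KOH pH 7.1, KCl, MgCl2, DTT, 1% DMSO, 20 min room temperature. Labeled glucose 6-phosphate captured on anion resin, eluted and counted. EC50 = concentration giving half of maximal activation.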
row,Structure (SMILES),EC50
1,"CC(C)(C)c1ccc(/C(=C\[C@H]2CCC(=O)N2)c2ccc(Cl)c(=O)[nH]2)cc1 [Example 4-18, 6-{(E)-1-(4-tert-Butylphenyl)-2-[(2R)-5-oxopyrrolidin-2-yl]ethenyl}-3-chloropyridin-2(1H)-one]",0.01 to 0.5 µM
2,"O=C1CC[C@H](/C=C(\c2ccc(C(F)(F)F)cc2)c2ccc(Cl)c(=O)[nH]2)N1 [Example 4-19, 3-Chloro-6-{(E)-2-[(2R)-5-oxopyrrolidin-2-yl]-1-[4-(trifluoromethyl)phenyl]ethenyl}pyridin-2(1H)-one]",0.5 to 3 µM
3,"CC(C)CCOc1ccc(/C(=C\[C@H]2CCC(=O)N2)c2ccc(Cl)c(=O)[nH]2)cc1Cl [Example 4-20, 3-Chloro-6-{(E)-1-[3-chloro-4-(3-methylbutoxy)phenyl]-2-[(2R)-5-oxopyrrolidin-2-yl]ethenyl}pyridin-2(1H)-one]",0.01 to 0.5 µM
4,"CC(C)CCCOc1ccc(/C(=C\[C@H]2CCC(=O)N2)c2ccc(Cl)c(=O)[nH]2)cc1Cl [Example 4-21, 3-Chloro-6-{(E)-1-{3-chloro-4-[(4-methylpentyl)oxy]phenyl}-2-[(2R)-5-oxopyrrolidin-2-yl]ethenyl}pyridin-2(1H)-one]",0.01 to 0.5 µM
5,"CC(C)COc1ccc(/C(=C\[C@H]2CCC(=O)N2)c2ccc(Cl)c(=O)[nH]2)cc1Cl [Example 4-22, 3-Chloro-6-{(E)-1-[3-chloro-4-(2-methylpropoxy)phenyl]-2-[(2R)-5-oxopyrrolidin-2-yl]ethenyl}pyridin-2(1H)-one]",0.01 to 0.5 µM
6,"Cc1ccc(/C(=C\[C@H]2CCC(=O)N2)c2ccc(Cl)c(=O)[nH]2)cc1C [Example 4-23, 3-Chloro-6-{(E)-1-(3,4-dimethylphenyl)-2-[(2R)-5-oxopyrrolidin-2-yl]ethenyl}pyridin-2(1H)-one]",0.5 to 3 µM
7,"Cc1ccc(/C(=C\[C@H]2CCC(=O)N2)c2ccc(Cl)c(=O)[nH]2)cc1Cl [Example 4-24, 3-Chloro-6-{(E)-1-(3-chloro-4-methylphenyl)-2-[(2R)-5-oxopyrrolidin-2-yl]ethenyl}pyridin-2(1H)-one]",0.5 to 3 µM
8,"Cc1ccc(/C(=C\[C@H]2CCC(=O)N2)c2ccc(Cl)c(=O)[nH]2)cc1C(F)(F)F [Example 4-25, 3-Chloro-6-{(E)-1-[4-methyl-3-(trifluoromethyl)phenyl]-2-[(2R)-5-oxopyrrolidin-2-yl]ethenyl}pyridin-2(1H)-one]",0.5 to 3 µM
9,"O=C1CC[C@H](/C=C(\c2ccc(CCCCO)cc2)c2ccc(Cl)c(=O)[nH]2)N1 [Example 4-26, 3-Chloro-6-{(E)-1-[4-(4-hydroxybutyl)phenyl]-2-[(2R)-5-oxopyrrolidin-2-yl]ethenyl}pyridin-2(1H)-one]",0.5 to 3 µM
10,"CCSc1ccc(/C(=C\[C@H]2CCC(=O)N2)c2ccc(Cl)c(=O)[nH]2)cc1Cl [Example 4-27, 3-Chloro-6-{(E)-1-[3-chloro-4-(ethylsulfanyl)phenyl]-2-[(2R)-5-oxopyrrolidin-2-yl]ethenyl}pyridin-2(1H)-one]",0.01 to 0.5 µM
11,"CC(C)COCCc1ccc(/C(=C\[C@H]2CCC(=O)N2)c2ccc(Cl)c(=O)[nH]2)cc1 [Example 4-28, 3-Chloro-6-{(E)-1-{4-[2-(2-methylpropoxy)ethyl]phenyl}-2-[(2R)-5-oxopyrrolidin-2-yl]ethenyl}pyridin-2(1H)-one]",0.5 to 3 µM
12,"CC(C)Cc1ccc(/C(=C\[C@H]2CCC(=O)N2)c2ccc(Cl)c(=O)[nH]2)cc1 [Example 4-29, 3-Chloro-6-{(E)-1-[4-(2-methylpropyl)phenyl]-2-[(2R)-5-oxopyrrolidin-2-yl]ethenyl}pyridin-2(1H)-one]",0.5 to 3 µM
13,"O=C1CC[C@H](/C=C(\c2ccc(OC(F)(F)F)cc2)c2ccc(Cl)c(=O)[nH]2)N1 [Example 4-30, 3-Chloro-6-{(E)-2-[(2R)-5-oxopyrrolidin-2-yl]-1-[4-(trifluoromethoxy)phenyl]ethenyl}pyridin-2(1H)-one]",0.5 to 3 µM
14,"Cc1ccc(/C(=C\[C@H]2CCC(=O)N2)c2ccc(Cl)c(=O)[nH]2)c(C)c1 [Example 4-31, 3-Chloro-6-{(E)-1-(2,4-dimethylphenyl)-2-[(2R)-5-oxopyrrolidin-2-yl]ethenyl}pyridin-2(1H)-one]",3 to 10 µM
15,"CC(C)Oc1ccc(/C(=C\[C@H]2CCC(=O)N2)c2ccc(Cl)c(=O)[nH]2)cc1Cl [Example 4-32, 3-Chloro-6-{(E)-1-[3-chloro-4-(propan-2-yloxy)phenyl]-2-[(2R)-5-oxopyrrolidin-2-yl]ethenyl}pyridin-2(1H)-one]",0.01 to 0.5 µM
16,"O=C1CC[C@H](/C=C(\c2ccc(SC3CCCC3)cc2)c2ccc(Cl)c(=O)[nH]2)N1 [Example 4-33, 3-Chloro-6-{(E)-1-[4-(cyclopentylsulfanyl)phenyl]-2-[(2R)-5-oxopyrrolidin-2-yl]ethenyl}pyridin-2(1H)-one]",0.01 to 0.5 µM

row,Structure (SMILES),EC50
1,"Cc1cc(/C(=C\[C@H]2CCC(=O)N2)c2ccc(Cl)c(=O)[nH]2)ccc1SC1CC1 [Example 4-34, 3-Chloro-6-{(E)-1-[4-(cyclopropylsulfanyl)-3-methylphenyl]-2-[(2R)-5-oxopyrrolidin-2-yl]ethenyl}pyridin-2(1H)-one]",0.5 to 3 µM
2,"CSc1ccc(/C(=C\[C@H]2CCC(=O)N2)c2ccc(Cl)c(=O)[nH]2)cc1C(F)(F)F [Example 4-35, 3-Chloro-6-{(E)-1-[4-(methylsulfanyl)-3-(trifluoromethyl)phenyl]-2-[(2R)-5-oxopyrrolidin-2-yl]ethenyl}pyridin-2(1H)-one]",0.5 to 3 µM
3,"O=C1CC[C@H](/C=C(\c2cccc(SC3CC3)c2)c2ccc(Cl)c(=O)[nH]2)N1 [Example 4-36, 3-Chloro-6-{(E)-1-[3-(cyclopropylsulfanyl)phenyl]-2-[(2R)-5-oxopyrrolidin-2-yl]ethenyl}pyridin-2(1H)-one]",3 to 10 µM
4,"O=C1CC[C@H](/C=C(\c2ccc(SC3CC3)cc2)c2ccc(Cl)c(=O)[nH]2)N1 [Example 4-37, 3-Chloro-6-{(E)-1-[4-(cyclopropylsulfanyl)phenyl]-2-[(2R)-5-oxopyrrolidin-2-yl]ethenyl}pyridin-2(1H)-one]",0.01 to 0.5 µM
5,"O=C1CC[C@H](/C=C(\c2ccc(OCCCCO)c(Cl)c2)c2ccc(Cl)c(=O)[nH]2)N1 [Example 4-38, 3-Chloro-6-{(E)-1-[3-chloro-4-(4-hydroxybutoxy)phenyl]-2-[(2R)-5-oxopyrrolidin-2-yl]ethenyl}pyridin-2(1H)-one]",0.01 to 0.5 µM
6,"CSc1ccc(/C(=C\[C@H]2CCN(C(C)=O)C2)c2ccc(C3CC3)c(=O)[nH]2)cc1 [Example 4-39, 6-{(E)-2-[(3R)-1-Acetylpyrrolidin-3-yl]-1-[4-(methylsulfanyl)phenyl]ethenyl}-3-cyclopropylpyridin-2(1H)-one]",0.01 to 0.5 µM
7,"CCc1ccc(/C(=C\[C@H]2CCN(C(C)=O)C2)c2ccc(Cl)c(=O)[nH]2)cc1 [Example 4-40, 6-[(E)-2-[(3R)-1-Acetylpyrrolidin-3-yl]-1-(4-ethylphenyl)ethenyl]-3-chloropyridin-2(1H)-one]",0.5 to 3 µM
8,"CCOc1ccc(/C(=C\[C@H]2CCN(C(C)=O)C2)c2ccc(Cl)c(=O)[nH]2)cc1Cl [Example 4-41, 6-[(E)-2-[(3R)-1-Acetylpyrrolidin-3-yl]-1-(3-chloro-4-ethoxyphenyl)ethenyl]-3-chloropyridin-2(1H)-one]",0.5 to 3 µM
9,"CSc1ccc(/C(=C\C2CCN(C(C)=O)CC2)c2ccc(C3CC3)c(=O)[nH]2)cc1 [Example 4-42, 6-{(E)-2-(1-Acetylpiperidin-4-yl)-1-[4-(methylsulfanyl)phenyl]ethenyl}-3-cyclopropylpyridin-2(1H)-one]",3 to 10 µM
10,"CC(=O)N1CCC(/C=C(\c2ccc(S(C)(=O)=O)cc2)c2ccc(C3CC3)c(=O)[nH]2)CC1 [Example 4-43, 6-{(E)-2-(1-Acetylpiperidin-4-yl)-1-[4-(methylsulfonyl)phenyl]ethenyl}-3-cyclopropylpyridin-2(1H)-one]",3 to 10 µM
11,"CSc1ccc(/C(=C\C2CN(C(C)=O)C2)c2ccc(C3CC3)c(=O)[nH]2)cc1 [Example 4-44, 6-{(E)-2-(1-Acetylazetidin-3-yl)-1-[4-(methylsulfanyl)phenyl]ethenyl}-3-cyclopropylpyridin-2(1H)-one]",0.5 to 3 µM
12,"CSc1ccc(/C(=C\[C@H]2CCC(=O)N2C)c2ccc(C3CC3)c(=O)[nH]2)cc1 [Example 4-45, 3-Cyclopropyl-6-{(E)-2-[(2R)-1-methyl-5-oxopyrrolidin-2-yl]-1-[4-(methylsulfanyl)phenyl]ethenyl}pyridin-2(1H)-one]",0.01 to 0.5 µM
13,"CCc1ccc(/C(=C\[C@H]2CCCN2C(C)=O)c2ccc(Cl)c(=O)[nH]2)cc1 [Example 4-47, 6-[(E)-2-[(2R)-1-Acetylpyrrolidin-2-yl]-1-(4-ethylphenyl)ethenyl]-3-chloropyridin-2(1H)-one]",0.5 to 3 µM
14,"CCOc1ccc(/C(=C\[C@H]2CCC(=O)N2)c2ccc(Cl)c(=O)[nH]2)cc1 [Example 4-48, 3-Chloro-6-{(E)-1-(4-ethoxyphenyl)-2-[(2R)-5-oxopyrrolidin-2-yl]ethenyl}pyridin-2(1H)-one]",0.5 to 3 µM
15,"CCOc1ccc(/C(=C\[C@H]2CCC(=O)N2)c2ccc(Cl)c(=O)[nH]2)cc1F [Example 4-49, 3-Chloro-6-{(E)-1-(4-ethoxy-3-fluorophenyl)-2-[(2R)-5-oxopyrrolidin-2-yl]ethenyl}pyridin-2(1H)-one]",0.5 to 3 µM
